Assay results as given in patent US20190142810A1, “MITOCHONDRIAL INHIBITORS FOR THE TREATMENT OF PROLIFERATION DISORDERS” (Basilea Pharmaceutica International AG, priority 2016, published 2019).

What was measured:
[1] = test system: Oxygen consumption (mitochondrial function); test: Oxygen consumption assay (MitoXpress probe); type: cell-based; conditions: 5 h, MitoXpress probe signal, kinetic analysis at 37° C. for 5 hours, compared to untreated cells
From the text: Oxygen consumption is one of the most informative and direct measures of mitochondrial function and can be measured, for example, by using the MitoXpress® assay (Luxcel MX-2001, Luxcel Biosciences). The MitoXpress® probe is one of a family of phosphorescent oxygen sensitive probes. The assay exploits the ability of oxygen to quench the excited state of the MitoXpress® probe. As the test material respires (i.e. the cells), oxygen is depleted in the surrounding solution/environment, which increases the probe phosphorescence signal. Changes in oxygen consumption reflecting changes in mitochondrial activity are seen as changes in the MitoXpress® probe signal over time.
Cells were seeded in 96 well black plates with transparent bottoms (Greiner Bio-One cat. no. 655090) at a density of 50′000 cells/well in a final volume of 100 μL. After 24 hours the incubation media was removed and 150 μL of fresh media containing inhibitors at different concentrations was added to each well. Then, 10 μL of MitoXpress® and 150 μL mineral oil were added per well. Reading from the top of the plate, kinetic analysis was performed at 37° C. for 5 hours using a Synergy 4 plate reader (BioTek) and Time-resolved Fluoresence (TRF) wavelengths of 380/11 nm excitation and 650/20 nm emission or 665/40 emission (30 microsecond delay time, 100 microsecond integration time, gain or sensitivity settings set at either medium or high). IC50s were calculated as the concentration that inhibits 50% of the phosphorescent oxygen sensitive probe signal (MitoXpress®) as compared to untreated cells.

[2] = test system: HeLa galactose cells; test: Cell growth and proliferation assay of HeLa galactose cells (crystal violet); type: cell-based; conditions: Homo sapiens, HeLa, 72 h, 72 hours incubation, crystal violet staining, absorbance at 590 nm
Outline: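 HeLa cells adapted stepwise over three weeks to glucose-free galactose medium plus 10 mM galactose, seeded at 2000 cells/well and treated 72 h with compounds (0.001% DMSO) at 37° C. Growth read by crystal violet staining, dye solubilized and absorbance at 590 nm; IC50 from concentration-response curves.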

Compound	IC50 [1]	IC50 [2]
Cc1nsc(NC(=O)N2CCC(=Cc3ccc(NCCCN)cc3F)CC2)n1 [Example 102]	395 nM	189 nM
Cc1nsc(NC(=O)N2CCC(Cc3ncc(Cl)cc3F)CC2)n1 [Example 62]	122 nM	57 nM
Cc1nsc(NC(=O)N2CCC(=Cc3ccc(OC(F)(F)F)cc3)CC2)n1 [Example 52]	477 nM	271 nM
Cc1cc(NC(=O)N2CCC(Cc3ccc(Cl)cc3F)CC2)ccn1 [Example 72, 4-[(4-chloro-2-fluoro-phenyl)methyl]-N-(2-methyl-4-pyridyl)piperidine-1-carboxamide]	68 nM	34 nM
Cc1nsc(NC(=O)N2CCC(Cc3ccc(C(F)(F)F)cc3F)CC2)n1 [Example 33]	102 nM	70 nM
Cc1cc(NC(=O)N2CCC(=Cc3c(F)cc(N(C)C)cc3F)CC2)sn1 [Example 148, 4-[[4-(dimethylamino)-2,6-difluoro-phenyl]methylene]-N-(3-methylisothiazol-5-yl)piperidine-1-carboxamide]	16 nM	9 nM
Cc1nsc(NC(=O)N2CCCC(=Cc3c(F)cc(Cl)cc3F)CC2)n1 [Example 114]	65 nM	19 nM
Cc1nsc(NC(=O)N2CCC(Oc3ccc(Cl)cc3)CC2)n1 [Example 19, 4-(4-chlorophenoxy)-N-(3-methyl-1,2,4-thiadiazol-5-yl)piperidine-1-carboxamide]	488 nM	266 nM
COCCN(C)c1cc(F)c(C=C2CCN(C(=O)Nc3nc(C)ns3)CC2)c(F)c1 [Example 146, 4-[[2,6-difluoro-4-[2-methoxyethyl(methyl)amino]phenyl]methylene]-N-(3-methyl-1,2,4-thiadiazol-5-yl)piperidine-1-carboxamide]	20 nM	13 nM
Cc1nsc(NC(=O)N2CCC(Cc3ccc(C#N)cc3F)CC2)n1 [Example 32]	116 nM	43 nM
Cc1nsc(NC(=O)N2CCC(C(=O)c3ccc(Br)cc3)CC2)n1 [Example 77, 4-(4-bromobenzoyl)-N-(3-methyl-1,2,4-thiadiazol-5-yl)piperidine-1-carboxamide]	54 nM	48 nM
Cc1cc(NC(=O)N2CCC(Cc3ccc(Cl)cc3F)CC2)sn1 [Example 63, 4-[(4-chloro-2-fluoro-phenyl)methyl]-N-(3-methylisothiazol-5-yl)piperidine-1-carboxamide]	56 nM	20 nM
COc1cc(CC2CCN(C(=O)Nc3nc(C)ns3)CC2)c(F)cc1Cl [Example 65]	126 nM	50 nM
Cc1cc(NC(=O)N2CCC(=Cc3ccc(Cl)cc3F)CC2)ccn1 [Example 128]	168 nM	33 nM
Cc1nsc(NC(=O)N2CCCN(Cc3ccc(Cl)cc3F)CC2)n1 [Example 51]	182 nM	67 nM
COCc1ccc(C=C2CCN(C(=O)Nc3nc(C)ns3)CC2)c(F)c1 [Example 93, 4-[[2-fluoro-4-(methoxymethyl)phenyl]methylene]-N-(3-methyl-1,2,4-thiadiazol-5-yl)piperidine-1-carboxamide]	63 nM	56 nM
Cc1nsc(NC(=O)N2CCC(=Cc3c(F)cc(N(C)CCO)cc3F)CC2)n1 [Example 158, 4-[[2,6-difluoro-4-[2-hydroxyethyl(methyl)amino]phenyl]methylene]-N-(3-methyl-1,2,4-thiadiazol-5-yl)piperidine-1-carboxamide]	40 nM	28 nM
COc1cc(F)c(C=C2CCN(C(=O)Nc3nc(C)ns3)CC2)c(F)c1 [Example 97, 4-[(2,6-difluoro-4-methoxy-phenyl)methylene]-N-(3-methyl-1,2,4-thiadiazol-5-yl)piperidine-1-carboxamide]	30 nM	28 nM
CCc1ccc(CC2CCN(C(=O)Nc3nc(C)ns3)CC2)cc1 [Example 17]	243 nM	162 nM
Cc1nsc(NC(=O)N2CCC(Cc3ccc(Cl)cc3N)CC2)n1 [Example 24]	307 nM	138 nM

Compound	IC50 [1]	IC50 [2]
CCc1nsc(NC(=O)N2CCC(=Cc3c(F)cc(N(C)C)cc3F)CC2)n1 [Example 149, 4-[[4-(dimethylamino)-2,6-difluoro-phenyl]methylene]-N-(3-ethyl-1,2,4-thiadiazol-5-yl)piperidine-1-carboxamide]	13 nM	11 nM
Cc1nsc(NC(=O)N2CCC(Cc3ccc(C)c(C)c3)CC2)n1 [Example 28, 4-[(3,4-dimethylphenyl)methyl]-N-(3-methyl-1,2,4-thiadiazol-5-yl)piperidine-1-carboxamide]	334 nM	249 nM
COc1cc(F)c(CC2CCN(C(=O)Nc3nc(C)ns3)CC2)c(F)c1 [Example 98, 4-[(2,6-difluoro-4-methoxy-phenyl)methyl]-N-(3-methyl-1,2,4-thiadiazol-5-yl)piperidine-1-carboxamide]	76 nM	39 nM
Cc1nsc(NC(=O)N2CCC(=Cc3ccc(CO)cc3F)CC2)n1 [Example 89, 4-[[2-fluoro-4-(hydroxymethyl)phenyl]methylene]-N-(3-methyl-1,2,4-thiadiazol-5-yl)piperidine-1-carboxamide]	352 nM	228 nM
Cc1nsc(NC(=O)N2CCC(C(=O)c3ccc(Cl)cc3F)CC2)n1 [Example 92, 4-(4-chloro-2-fluoro-benzoyl)-N-(3-methyl-1,2,4-thiadiazol-5-yl)piperidine-1-carboxamide]	62 nM	57 nM
Cc1nsc(NC(=O)N2CCC(Cc3ccc(Cl)cc3)CC2)n1 [Example 2]	< 100 nM	41 nM
COc1ccc(CC2CCN(C(=O)Nc3nc(C)ns3)CC2)cc1 [Example 3]	< 100 nM	80 nM
Cc1nsc(NC(=O)N2CCC(=Cc3ccc(Cl)cc3F)CC2)n1 [Example 39, 4-[(4-chloro-2-fluoro-phenyl)methylene]-N-(3-methyl-1,2,4-thiadiazol-5-yl)piperidine-1-carboxamide]	69 nM	38 nM
Cc1nsc(NC(=O)N2CCC(=Cc3ccc(F)cc3F)CC2)n1 [Example 59, 4-[(2,4-difluorophenyl)methylene]-N-(3-methyl-1,2,4-thiadiazol-5-yl)piperidine-1-carboxamide]	43 nM	41 nM
Cc1nsc(NC(=O)N2CCC(=Cc3ccc(Cl)cc3Cl)CC2)n1 [Example 21]	208 nM	207 nM
O=C(Nc1nc(CCO)ns1)N1CCC(=Cc2ccc(Cl)cc2F)CC1 [Example 78, 4-[(4-chloro-2-fluoro-phenyl)methylene]-N-[3-(2-hydroxyethyl)-1,2,4-thiadiazol-5-yl]piperidine-1-carboxamide]	267 nM	163 nM
Cc1nsc(NC(=O)N2CCC(Cc3ccc(Cl)cc3F)CC2)n1 [Example 9]	< 100 nM	36 nM
Cc1nsc(NC(=O)N2CCCC(=Cc3ccc(C(F)(F)F)cc3F)CC2)n1 [Example 116]	150 nM	54 nM
Cc1nsc(NC(=O)N2CCC(=Cc3ncc(Cl)cc3F)CC2)n1 [Example 67]	233 nM	125 nM
Cc1nsc(NC(=O)N2CCC(=Cc3c(F)cc(N(C)C4CCOC4)cc3F)CC2)n1 (centres unmarked) [Example 157]	109 nM	51 nM
Cc1nsc(NC(=O)N2CCC(=Cc3ccc(N4CCCC4)cc3F)CC2)n1 [Example 45, 4-[(2-fluoro-4-pyrrolidin-1-yl-phenyl)methylene]-N-(3-methyl-1,2,4-thiadiazol-5-yl)piperidine-1-carboxamide]	440 nM	284 nM
Cc1nsc(NC(=O)N2CCN(Cc3ccc(Cl)cc3F)CC2)n1 [Example 50, 4-[(4-chloro-2-fluoro-phenyl)methyl]-N-(3-methyl-1,2,4-thiadiazol-5-yl)piperazine-1-carboxamide]	255 nM	197 nM
Cc1nsc(NC(=O)N2CC/C(=C/c3ccc(Cl)cc3F)C(C)C2)n1 (centres unmarked) [Example 83, (4Z)-4-[(4-chloro-2-fluoro-phenyl)methylene]-3-methyl-N-(3-methyl-1,2,4-thiadiazol-5-yl)piperidine-1-carboxamide]	329 nM	115 nM
CCc1nsc(NC(=O)N2CCC(Cc3c(F)cc(N(C)C)cc3F)CC2)n1 [Example 152, 4-[[4-(dimethylamino)-2,6-difluoro-phenyl]methyl]-N-(3-ethyl-1,2,4-thiadiazol-5-yl)piperidine-1-carboxamide]	39 nM	19 nM
COc1ccc(CC2CCN(C(=O)Nc3nc(C)ns3)CC2)c(C)c1 [Example 13, 4-[(4-methoxy-2-methyl-phenyl)methyl]-N-(3-methyl-1,2,4-thiadiazol-5-yl)piperidine-1-carboxamide]	345 nM	307 nM
